Publication PMC5218480 (PLoS ONE, 2017)

System: MV-4-11 cells
Assay: Gene expression microarray analysis (Affymetrix PrimeView) and GSEA
Format: cell-based, human
Set-up: RFU PODN (11730768_x_at) / Fold change /veh PODN (11730768_x_at) / RFU LINC00158 (11744669_a_at) / Fold change /veh LINC00158 (11744669_a_at) / RFU DUSP10 (11751237_a_at) / Fold change /veh DUSP10 (11751237_a_at) / RFU ID3 (11757404_x_at) / Fold change /veh ID3 (11757404_x_at) / RFU PLEKHG5 (11737974_s_at) / Fold change /veh PLEKHG5 (11737974_s_at) / RFU LRRC4B (11730491_at) / Fold change /veh LRRC4B (11730491_at) / RFU GIMAP4 (11747438_a_at) / Fold change /veh GIMAP4 (11747438_a_at) / RFU KRT8 (11758183_x_at) / Fold change /veh KRT8 (11758183_x_at) / RFU CNN1 (11734310_a_at) / Fold change /veh CNN1 (11734310_a_at) / RFU VPS37D (11726825_at) / Fold change /veh VPS37D (11726825_at) / RFU C10orf10 (11716522_x_at) / Fold change /veh C10orf10 (11716522_x_at) / RFU KIR2DL2 /// KIR2DL4 /// KIR2DL5A /// KIR2DL5B /// KIR2DS1 /// KIR2DS2 /// KIR2DS3 /// KIR2DS4 /// KIR3DL3 /// KIR3DL3 /// KIR3DS1 (11738374_at) / Fold change /veh KIR2DL2 /// KIR2DL4 /// KIR2DL5A /// KIR2DL5B /// KIR2DS1 /// KIR2DS2 /// KIR2DS3 /// KIR2DS4 /// KIR3DL3 /// KIR3DL3 /// KIR3DS1 (11738374_at) / RFU C1QL1 (11718748_at) / Fold change /veh C1QL1 (11718748_at) / RFU TMPRSS4 (11747572_a_at) / Fold change /veh TMPRSS4 (11747572_a_at) / RFU HAMP (11756126_x_at) / Fold change /veh HAMP (11756126_x_at) / RFU RNFT2 (11725882_a_at) / Fold change /veh RNFT2 (11725882_a_at) / RFU NR4A2 (11747474_a_at) / Fold change /veh NR4A2 (11747474_a_at) / RFU ABCC12 (11746883_a_at) / Fold change /veh ABCC12 (11746883_a_at) / RFU TMEM136 (11760407_x_at) / Fold change /veh TMEM136 (11760407_x_at) / RFU CLDN22 /// WWC2 (11732394_at) / Fold change /veh CLDN22 /// WWC2 (11732394_at) / RFU HLA-DPB1 (11760878_x_at) / Fold change /veh HLA-DPB1 (11760878_x_at) / RFU SPINT1 (11716480_a_at) / Fold change /veh SPINT1 (11716480_a_at) / RFU GAP43 (11754022_s_at) / Fold change /veh GAP43 (11754022_s_at) / RFU A4GNT (11735810_at) / Fold change /veh A4GNT (11735810_at) / RFU PRB3 (11715151_x_at) / Fold change /veh PRB3 (11715151_x_at) / RFU TUBB4B (11761932_at) / Fold change /veh TUBB4B (11761932_at) / RFU CAPN14 (11732068_a_at) / Fold change /veh CAPN14 (11732068_a_at) / RFU TMCC2 (11721928_a_at) / Fold change /veh TMCC2 (11721928_a_at) / RFU IRGQ (11745062_a_at) / Fold change /veh IRGQ (11745062_a_at) / RFU FAM174B (11720279_a_at) / Fold change /veh FAM174B (11720279_a_at) / RFU TMPRSS4 (11748680_a_at) / Fold change /veh TMPRSS4 (11748680_a_at) / RFU FAM212B (11763350_a_at) / Fold change /veh FAM212B (11763350_a_at) / RFU PLEKHG5 (11743358_a_at) / Fold change /veh PLEKHG5 (11743358_a_at) / RFU ZSCAN30 (11745921_a_at) / Fold change /veh ZSCAN30 (11745921_a_at) / RFU CMKLR1 (11741424_a_at) / Fold change /veh CMKLR1 (11741424_a_at) / RFU LOC101060620 /// MAPK8IP1 (11723275_at) / Fold change /veh LOC101060620 /// MAPK8IP1 (11723275_at) / RFU SPTSSB (11747773_x_at) / Fold change /veh SPTSSB (11747773_x_at) / RFU PRSS12 (11739890_at) / Fold change /veh PRSS12 (11739890_at) / RFU BIN1 (11741810_x_at) / Fold change /veh BIN1 (11741810_x_at) / RFU WNT11 (11732464_a_at) / Fold change /veh WNT11 (11732464_a_at) / RFU C10orf10 (11716521_a_at) / Fold change /veh C10orf10 (11716521_a_at) / RFU C5orf56 (11738089_at) / Fold change /veh C5orf56 (11738089_at) / RFU CYB561 (11721691_x_at) / Fold change /veh CYB561 (11721691_x_at) / RFU ANKRD19P (11752326_a_at) / Fold change /veh ANKRD19P (11752326_a_at) / RFU OR2T12 /// OR2T33 /// OR2T8 (11738714_s_at) / Fold change /veh OR2T12 /// OR2T33 /// OR2T8 (11738714_s_at) / RFU VCAN (11748164_a_at) / Fold change /veh VCAN (11748164_a_at) / RFU JSRP1 (11732532_at) / Fold change /veh JSRP1 (11732532_at) / RFU KRTAP10-11 (11738290_x_at) / Fold change /veh KRTAP10-11 (11738290_x_at) / RFU MYO3A (11730013_a_at) / Fold change /veh MYO3A (11730013_a_at) / RFU EBF3 (11725865_a_at) / Fold change /veh EBF3 (11725865_a_at) / RFU CAMK2N1 (11719241_x_at) / Fold change /veh CAMK2N1 (11719241_x_at) / RFU C5orf56 (11738088_a_at) / Fold change /veh C5orf56 (11738088_a_at) / RFU OLFML3 (11715873_a_at) / Fold change /veh OLFML3 (11715873_a_at) / RFU LOC100653217 /// NTM (11731650_a_at) / Fold change /veh LOC100653217 /// NTM (11731650_a_at) / RFU MAPK11 (11762145_a_at) / Fold change /veh MAPK11 (11762145_a_at) / RFU FIZ1 (11724087_x_at) / Fold change /veh FIZ1 (11724087_x_at) / RFU OASL (11726364_x_at) / Fold change /veh OASL (11726364_x_at) / RFU SOX15 (11748057_x_at) / Fold change /veh SOX15 (11748057_x_at) / RFU CD79A (11719716_a_at) / Fold change /veh CD79A (11719716_a_at) / RFU HIST1H1D (11736915_at) / Fold change /veh HIST1H1D (11736915_at) / RFU CASKIN2 (11723855_a_at) / Fold change /veh CASKIN2 (11723855_a_at) / RFU LOC730098 (11760151_x_at) / Fold change /veh LOC730098 (11760151_x_at) / RFU OR4N2 (11742367_at) / Fold change /veh OR4N2 (11742367_at) / RFU PRRT2 (11749266_a_at) / Fold change /veh PRRT2 (11749266_a_at) / RFU SNX32 (11753110_a_at) / Fold change /veh SNX32 (11753110_a_at) / RFU CDHR5 (11726645_a_at) / Fold change /veh CDHR5 (11726645_a_at) / RFU RCAN1 (11760418_a_at) / Fold change /veh RCAN1 (11760418_a_at) / RFU FAM167A (11723789_a_at) / Fold change /veh FAM167A (11723789_a_at) / RFU FAM26E (11764081_at) / Fold change /veh FAM26E (11764081_at) / RFU ISYNA1 (11749810_s_at) / Fold change /veh ISYNA1 (11749810_s_at) / RFU ACY1 (11761880_at) / Fold change /veh ACY1 (11761880_at) / RFU 11764098_at / Fold change /veh 11764098_at / RFU SAMD14 (11745864_x_at) / Fold change /veh SAMD14 (11745864_x_at) / RFU NPB (11741838_a_at) / Fold change /veh NPB (11741838_a_at) / RFU TMPRSS6 (11731388_a_at) / Fold change /veh TMPRSS6 (11731388_a_at) / RFU KRTAP10-2 (11738614_at) / Fold change /veh KRTAP10-2 (11738614_at) / RFU ARHGAP8 /// PRR5-ARHGAP8 (11727945_x_at) / Fold change /veh ARHGAP8 /// PRR5-ARHGAP8 (11727945_x_at) / RFU KRTAP5-7 /// NADSYN1 (11734609_at) / Fold change /veh KRTAP5-7 /// NADSYN1 (11734609_at) / RFU RASL12 (11751679_a_at) / Fold change /veh RASL12 (11751679_a_at) / RFU CDKN2B (11736163_a_at) / Fold change /veh CDKN2B (11736163_a_at) / RFU PRF1 (11729649_at) / Fold change /veh PRF1 (11729649_at) / RFU, ZNF638 /// ZNF638-IT1 / Fold change vs veh, ZNF638 /// ZNF638-IT1 / RFU, PANK3 / Fold change vs veh, PANK3 / RFU, SH3YL1 / Fold change vs veh, SH3YL1 / RFU, ZEB2 / Fold change vs veh, ZEB2 / RFU, NRIP1 / Fold change vs veh, NRIP1 / RFU, PTTG1IP / Fold change vs veh, PTTG1IP / RFU, CAPN2 / Fold change vs veh, CAPN2 / RFU, MED14 / Fold change vs veh, MED14 / RFU, SNORA58 / Fold change vs veh, SNORA58 / RFU, C1orf63 / Fold change vs veh, C1orf63 / RFU, LRRFIP1 / Fold change vs veh, LRRFIP1 / RFU, NDUFAF7 / Fold change vs veh, NDUFAF7 / RFU, SLC12A2 / Fold change vs veh, SLC12A2 / RFU, IBTK / Fold change vs veh, IBTK / RFU, ESF1 / Fold change vs veh, ESF1 / Fold change vs veh, TMEM50B / RFU, TAOK1 / Fold change vs veh, TAOK1 / RFU, ACBD3 / Fold change vs veh, ACBD3 / RFU, TMA16 / Fold change vs veh, TMA16 / RFU, RWDD3 / Fold change vs veh, RWDD3 / RFU, BCAT1 / Fold change vs veh, BCAT1 / RFU, EDEM3 / Fold change vs veh, EDEM3 / RFU, TMEM33 / Fold change vs veh, TMEM33 / RFU, WDR75 / Fold change vs veh, WDR75 / RFU, AHCTF1 / Fold change vs veh, AHCTF1 / RFU, TFRC / Fold change vs veh, TFRC / RFU, ZDHHC17 / Fold change vs veh, ZDHHC17 / RFU, NOM1 / Fold change vs veh, NOM1 / RFU, ARL8B / Fold change vs veh, ARL8B / RFU, ZBTB11 / Fold change vs veh, ZBTB11 / RFU, TAMM41 / Fold change vs veh, TAMM41 / RFU, KIAA1704 /// LOC100996395 / Fold change vs veh, KIAA1704 /// LOC100996395 / RFU, ING1 / Fold change vs veh, ING1 / RFU, TRMT61B / Fold change vs veh, TRMT61B / RFU, FUBP3 / Fold change vs veh, FUBP3 / RFU, TP53 / Fold change vs veh, TP53 / RFU, TNKS2 / Fold change vs veh, TNKS2 / RFU, ZFP14 / Fold change vs veh, ZFP14 / RFU, ACTR2 / Fold change vs veh, ACTR2 / RFU, PPP3R1 / Fold change vs veh, PPP3R1 / RFU, PIK3R1 / Fold change vs veh, PIK3R1 / RFU, HNRNPA1 / Fold change vs veh, HNRNPA1 / RFU, RNF170 / Fold change vs veh, RNF170 / RFU, ZNF28 / Fold change vs veh, ZNF28 / RFU, RNGTT / Fold change vs veh, RNGTT / RFU, OGT / Fold change vs veh, OGT / RFU, BRD1 / Fold change vs veh, BRD1 / RFU, MARS / Fold change vs veh, MARS / RFU, ZNF655 / Fold change vs veh, ZNF655 / RFU, FAHD1 / Fold change vs veh, FAHD1 / RFU, BDP1 / Fold change vs veh, BDP1 / RFU, LRRCC1 / Fold change vs veh, LRRCC1 / RFU, ARID1A / Fold change vs veh, ARID1A / RFU, ZNF146 / Fold change vs veh, ZNF146 / RFU, ZNF330 / Fold change vs veh, ZNF330 / RFU, GPN3 / Fold change vs veh, GPN3 / RFU, C9orf123 / Fold change vs veh, C9orf123 / RFU, N4BP2L2 / Fold change vs veh, N4BP2L2 / RFU, ARFIP1 / Fold change vs veh, ARFIP1 / RFU, FAM179B / Fold change vs veh, FAM179B / RFU, BCL10 / Fold change vs veh, BCL10 / RFU, UHRF1BP1L / Fold change vs veh, UHRF1BP1L / RFU, BET1 / Fold change vs veh, BET1 / RFU, CNOT2 / Fold change vs veh, CNOT2 / RFU, ZNF268 / Fold change vs veh, ZNF268 / Fold change vs veh, ZNF507 / RFU, DGCR2 / Fold change vs veh, DGCR2 / RFU, WDSUB1 / Fold change vs veh, WDSUB1 / Fold change vs veh, HSP90B1 /// MIR3652 / RFU, ADSS / Fold change vs veh, ADSS / RFU, GK / Fold change vs veh, GK / RFU, ZNF148 / Fold change vs veh, ZNF148 / RFU, TAF9 / Fold change vs veh, TAF9 / RFU, SLC1A5 / Fold change vs veh, SLC1A5 / RFU, SLMO2 / Fold change vs veh, SLMO2 / RFU, ABCC4 / Fold change vs veh, ABCC4 / RFU, LOC101060439 /// RAP1B / Fold change vs veh, LOC101060439 /// RAP1B / RFU, RFX7 / Fold change vs veh, RFX7 / RFU, GTPBP10 / Fold change vs veh, GTPBP10 / RFU, CNEP1R1 / Fold change vs veh, CNEP1R1 / RFU, BIVM-ERCC5 /// ERCC5 / Fold change vs veh, BIVM-ERCC5 /// ERCC5 / RFU, ILF3 / Fold change vs veh, ILF3 / RFU 11762660_at / Fold change /veh 11762660_at / RFU VCAN (11757783_s_at) / Fold change /veh VCAN (11757783_s_at) / RFU DDX43 (11728927_at) / Fold change /veh DDX43 (11728927_at) / RFU KRT8 (11758188_x_at) / Fold change /veh KRT8 (11758188_x_at) / RFU NKD1 (11759106_at) / Fold change /veh NKD1 (11759106_at) / RFU SRD5A1 (11742802_a_at) / Fold change /veh SRD5A1 (11742802_a_at) / RFU TPSAB1 /// TPSB2 (11721975_s_at) / Fold change /veh TPSAB1 /// TPSB2 (11721975_s_at) / RFU GSTM3 (11746129_a_at) / Fold change /veh GSTM3 (11746129_a_at) / RFU IL23R (11737362_x_at) / Fold change /veh IL23R (11737362_x_at) / RFU TMEM51 (11727254_a_at) / Fold change /veh TMEM51 (11727254_a_at) / RFU PIWIL2 (11732686_x_at) / Fold change /veh PIWIL2 (11732686_x_at) / RFU ORM1 (11744905_x_at) / Fold change /veh ORM1 (11744905_x_at) / RFU CCDC152 (11743942_at) / Fold change /veh CCDC152 (11743942_at) / RFU ECM1 (11717891_a_at) / Fold change /veh ECM1 (11717891_a_at) / RFU IL23R (11748794_a_at) / Fold change /veh IL23R (11748794_a_at) / RFU TNFAIP8L3 (11732012_x_at) / Fold change /veh TNFAIP8L3 (11732012_x_at) / RFU MBOAT4 (11741988_at) / Fold change /veh MBOAT4 (11741988_at) / RFU 11764193_at / Fold change /veh 11764193_at / RFU TMEM53 (11763286_at) / Fold change /veh TMEM53 (11763286_at) / RFU MAGEB2 (11727129_at) / Fold change /veh MAGEB2 (11727129_at) / RFU TMEM200A (11744735_a_at) / Fold change /veh TMEM200A (11744735_a_at) / RFU CCDC152 (11751479_a_at) / Fold change /veh CCDC152 (11751479_a_at) / RFU FAM211A (11726209_a_at) / Fold change /veh FAM211A (11726209_a_at) / RFU RGS16 (11746705_a_at) / Fold change /veh RGS16 (11746705_a_at) / RFU VCAN (11755009_s_at) / Fold change /veh VCAN (11755009_s_at) / RFU RHOB (11743442_s_at) / Fold change /veh RHOB (11743442_s_at) / RFU RGS16 (11720943_a_at) / Fold change /veh RGS16 (11720943_a_at) / RFU RGS16 (11720944_at) / Fold change /veh RGS16 (11720944_at) / RFU, VPS4B / Fold change vs veh, VPS4B / RFU, CREB1 / Fold change vs veh, CREB1 / RFU, DNAJC13 / Fold change vs veh, DNAJC13 / RFU, GNAQ / Fold change vs veh, GNAQ / RFU, CDK5R1 / Fold change vs veh, CDK5R1 / RFU, ZRANB3 / Fold change vs veh, ZRANB3 / RFU, CUL4A / Fold change vs veh, CUL4A / RFU, CCNY / Fold change vs veh, CCNY / RFU, UFL1 / Fold change vs veh, UFL1 / RFU, COG3 / Fold change vs veh, COG3 / RFU, DIAPH2 / Fold change vs veh, DIAPH2 / RFU, SKA2 / Fold change vs veh, SKA2 / RFU, AFF3 / Fold change vs veh, AFF3 / RFU, LMF1 / Fold change vs veh, LMF1 / RFU, IPO11 / Fold change vs veh, IPO11 / RFU, DFFB / Fold change vs veh, DFFB / RFU, FOXP1 / Fold change vs veh, FOXP1 / RFU, CARD8 / Fold change vs veh, CARD8 / RFU, STRN3 / Fold change vs veh, STRN3 / RFU, ADK / Fold change vs veh, ADK / RFU, RASSF2 / Fold change vs veh, RASSF2 / RFU, WIPF1 / Fold change vs veh, WIPF1 / RFU, LARP1B / Fold change vs veh, LARP1B / RFU, RASA1 / Fold change vs veh, RASA1 / RFU, RB1 / Fold change vs veh, RB1 / RFU, PPFIA1 / Fold change vs veh, PPFIA1 / RFU, MAT2A / Fold change vs veh, MAT2A / RFU, CCT5 / Fold change vs veh, CCT5 / RFU, WDR92 / Fold change vs veh, WDR92 / RFU, CUX1 / Fold change vs veh, CUX1 / RFU, TTC7A / Fold change vs veh, TTC7A / RFU, TMEM135 / Fold change vs veh, TMEM135 / RFU, DEPTOR / Fold change vs veh, DEPTOR / RFU, CPM / Fold change vs veh, CPM / RFU, DNAJB6 / Fold change vs veh, DNAJB6 / RFU, CACNA2D3 / Fold change vs veh, CACNA2D3 / RFU, DTX4 / Fold change vs veh, DTX4 / RFU, TFCP2 / Fold change vs veh, TFCP2 / RFU, GMCL1 /// GMCL1P1 / Fold change vs veh, GMCL1 /// GMCL1P1 / RFU, AEBP2 / Fold change vs veh, AEBP2 / RFU, SNHG1 /// SNORD22 /// SNORD25 /// SNORD26 /// SNORD27 /// SNORD28 /// SNORD29 /// SNORD31 / Fold change vs veh, SNHG1 /// SNORD22 /// SNORD25 /// SNORD26 /// SNORD27 /// SNORD28 /// SNORD29 /// SNORD31 / Fold change (Aza/veh), C12orf56 (ProbeSet 11735607_a_at) / Fold change (ACY-1035/veh), C12orf56 (ProbeSet 11735607_a_at) / Fold change (Aza/veh), FGFR1OP (ProbeSet 11751329_s_at) / Fold change (ACY-1035/veh), FGFR1OP (ProbeSet 11751329_s_at) / Fold change (Aza/veh), VPS36 (ProbeSet 11739960_a_at) / Fold change (ACY-1035/veh), VPS36 (ProbeSet 11739960_a_at) / RFU SYPL1 (11715823_x_at) / Fold change /veh SYPL1 (11715823_x_at) / RFU IGFBP7 (11715501_s_at) / Fold change /veh IGFBP7 (11715501_s_at) / RFU REEP3 (11722064_at) / Fold change /veh REEP3 (11722064_at) / RFU IGLL1 (11728026_x_at) / Fold change /veh IGLL1 (11728026_x_at): dose or concentration left out as unconfirmed
Conditions: MV-4-11 cells, 48 hours

In the case of `Nc1ncn([C@@H]2O[C@H](CO)[C@@H](O)[C@H]2O)c(=O)n1` [azacitidine], the “RFU NR4A2 (11747474_a_at)” value is reported as 22.61 RFU.
